Biological target: T1, Amine oxidase [flavin-containing] A (Homo sapiens, UniProt P21397)
T1 sequence (P21397 whole entry): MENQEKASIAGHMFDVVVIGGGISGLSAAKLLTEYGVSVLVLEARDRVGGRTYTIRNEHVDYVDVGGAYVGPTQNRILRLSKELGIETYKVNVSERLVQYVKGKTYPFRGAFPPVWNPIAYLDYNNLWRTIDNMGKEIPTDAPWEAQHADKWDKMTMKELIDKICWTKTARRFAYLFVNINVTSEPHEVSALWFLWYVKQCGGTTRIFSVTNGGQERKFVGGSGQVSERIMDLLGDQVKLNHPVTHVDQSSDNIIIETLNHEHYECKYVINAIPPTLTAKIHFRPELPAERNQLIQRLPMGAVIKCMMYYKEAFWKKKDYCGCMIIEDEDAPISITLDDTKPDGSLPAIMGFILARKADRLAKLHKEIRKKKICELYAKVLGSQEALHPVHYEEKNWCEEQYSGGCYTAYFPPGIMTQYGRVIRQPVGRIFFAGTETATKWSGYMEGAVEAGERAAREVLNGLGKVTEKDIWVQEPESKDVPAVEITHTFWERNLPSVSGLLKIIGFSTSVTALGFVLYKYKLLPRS
Assay: Compound was tested for the inhibition of monoamine oxidase A (MAO A) from human liver

## C[C@@H]1NC(=O)[C@H](NC(=O)[C@@H](N)Cc2ccc(O)cc2)C(C)(C)SSC(C)(C)[C@@H](C(O)O)NC(=O)[C@H](Cc2ccccc2)NC1=O
  Ki: 2000 nM

From ChEMBL document CHEMBL1127488, “Interaction of tetrahydrostilbazoles with monoamine oxidase A and B” (J Med Chem, 1994)
